Where two headings read alike, the source gives them in different places.
What was measured:
Type in all cases: biochemical
[1] = target: T1, MCH-3 (Homo sapiens, UniProt P55210); test: Fluorescence enzyme assay, IC50 determination, Mch3
T1 sequence (P55210 24-198 limits assumed): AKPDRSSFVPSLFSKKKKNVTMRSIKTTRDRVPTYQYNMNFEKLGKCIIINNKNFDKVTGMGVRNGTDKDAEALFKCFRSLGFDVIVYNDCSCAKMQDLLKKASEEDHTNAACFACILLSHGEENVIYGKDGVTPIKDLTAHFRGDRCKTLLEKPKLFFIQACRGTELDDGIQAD
T1 sequence (P55210 207-303 limits assumed): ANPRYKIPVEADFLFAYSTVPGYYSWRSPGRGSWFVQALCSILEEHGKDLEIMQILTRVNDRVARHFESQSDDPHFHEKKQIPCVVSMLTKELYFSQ
Protocol: (§1) Fluorescence enzyme assays detecting the activity of the compounds of Formula 1 utilizing the recombinant ICE and CPP32 enzymes are performed essentially according to Thornberry et al. (Nature, 356:768:774 (1992)) and Nicholson et al. (Nature, 376:37–43 (1995)) respectively, (herein incorporated by reference) in 96 well microtiter plates. The substrate is Acetyl-Tyr-Val-Ala-Asp-amino-4-methylcoumarin (AMC) for the ICE assay and Acetyl-Asp-Glu-Val-Asp-amino-4-methylcoumarin for the CPP32, Mch2, Mch3 and Mch5 assays. Enzyme reactions are run in ICE buffer (25 mM HEPES, 1 mM EDTA, 0.1% CHAPS, 10% sucrose, pH 7.5) containing 2 mM DTT at room temperature in duplicate.
(§2) The enzyme and the compound of Formula I to be assayed are allowed to preincubate in the microtitre plate wells for 30 minutes at room temperature prior to the addition of substrate to initiate the reaction. Fluorescent AMC product formation is monitored for one hour at room temperature by measuring the fluorescence emission at 460 nm using an excitation wavelength of 360 nm. The fluorescence change in duplicate (control) wells are averaged and the mean values are plotted as a function of inhibitor concentration to determine the inhibitor concentration producing 50% inhibition (IC50). The results of this assay are set forth below in Table 1 and in Table 3 (for Table 3, see Examples 11 through 52).
(§3) The reference compound for this assay was Cbz-ValAlaAsp-H and the values are denoted in Table 1 as “Reference”.

[2] = target: T2, mICE (Mus musculus, UniProt P29452); test: Fluorescence enzyme assay, IC50 determination, ICE
T2 sequence (P29452 123-296 limits assumed): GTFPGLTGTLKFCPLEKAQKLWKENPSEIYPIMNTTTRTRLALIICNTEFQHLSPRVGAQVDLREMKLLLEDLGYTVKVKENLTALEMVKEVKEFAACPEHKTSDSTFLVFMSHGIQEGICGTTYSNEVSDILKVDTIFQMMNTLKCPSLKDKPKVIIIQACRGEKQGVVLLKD
T2 sequence (P29452 315-402 limits assumed): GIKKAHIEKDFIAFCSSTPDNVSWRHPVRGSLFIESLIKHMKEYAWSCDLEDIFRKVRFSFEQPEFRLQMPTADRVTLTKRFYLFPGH
Protocol: as §1, §2, §3

[3] = target: T3, CPP32 (Homo sapiens, UniProt P42574); test: Fluorescence enzyme assay, IC50 determination, CPP32
T3 sequence (P42574 29-175 limits assumed): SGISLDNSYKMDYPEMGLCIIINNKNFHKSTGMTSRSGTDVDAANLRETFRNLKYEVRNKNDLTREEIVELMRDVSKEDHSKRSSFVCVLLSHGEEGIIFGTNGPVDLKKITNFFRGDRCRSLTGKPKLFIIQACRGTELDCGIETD
T3 sequence (P42574 176-277 limits assumed): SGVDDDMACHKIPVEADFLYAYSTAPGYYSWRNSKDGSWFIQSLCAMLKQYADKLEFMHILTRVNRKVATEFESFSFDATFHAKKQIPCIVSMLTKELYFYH
Protocol: as §1, §2, §3

[4] = target: T4, MCH-2 (Homo sapiens, UniProt P55212); test: Fluorescence enzyme assay, IC50 determination, Mch2
T4 sequence (P55212 24-179 limits assumed): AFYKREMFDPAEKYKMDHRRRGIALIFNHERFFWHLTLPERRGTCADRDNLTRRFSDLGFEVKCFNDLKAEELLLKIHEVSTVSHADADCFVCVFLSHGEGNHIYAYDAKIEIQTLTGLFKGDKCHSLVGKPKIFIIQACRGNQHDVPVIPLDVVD
T4 sequence (P55212 194-293 limits assumed): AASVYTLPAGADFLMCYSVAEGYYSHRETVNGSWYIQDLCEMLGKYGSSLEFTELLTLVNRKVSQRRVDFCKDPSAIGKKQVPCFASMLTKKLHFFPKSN
Protocol: as §1, §2, §3

[5] = target: MCH-5 (Homo sapiens, UniProt Q14790); test: Fluorescence enzyme assay, IC50 determination, Mch5
Sequence of MCH-5 (Q14790 217-374 limits assumed, species assumed): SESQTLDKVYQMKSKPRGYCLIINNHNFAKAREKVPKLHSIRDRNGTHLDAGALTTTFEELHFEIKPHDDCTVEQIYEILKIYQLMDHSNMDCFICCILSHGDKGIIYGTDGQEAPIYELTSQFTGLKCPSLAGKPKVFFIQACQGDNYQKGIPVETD
Sequence of MCH-5 (Q14790 385-479 limits assumed, species assumed): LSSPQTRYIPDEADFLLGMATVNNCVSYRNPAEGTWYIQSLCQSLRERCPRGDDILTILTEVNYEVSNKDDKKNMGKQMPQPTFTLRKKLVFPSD
Protocol: as §1, §2, §3

[6] = Ac-DEVD-AMC substrate, 30 min preincubation, room temperature, read-out: MCH-3 IC50
[7] = recombinant enzyme, Ac-YVAD-AMC substrate, 30 min preincubation, room temperature, read-out: mICE IC50
[8] = recombinant enzyme, Ac-DEVD-AMC substrate, 30 min preincubation, room temperature, read-out: CPP32 IC50
[9] = Ac-DEVD-AMC substrate, 30 min preincubation, room temperature, read-out: MCH-2 IC50
[10] = Ac-DEVD-AMC substrate, 30 min preincubation, room temperature, read-out: MCH-5 IC50
[11] = Table 3, method of Preparation 3A, read-out: MCH3 I50
[12] = Table 3, method of Preparation 3A, read-out: mICE I50
[13] = Table 3, method of Preparation 3A, read-out: CPP32 I50
[14] = Table 3, method of Preparation 3A, read-out: MCH2 I50
[15] = Table 3, method of Preparation 3A, read-out: MCH5 I50

## CC(C)[C@H](NC(=O)COc1cccc2ccccc12)C(=O)N[C@H](C=O)CC(=O)O [Example 2, (3S)-3-[N-((1-Naphthyloxy)Acetyl)Valinyl]Amino-4-Oxobutanoic Acid]
[1]; [6]
  IC50: 2.1 µM
[2]; [7]
  IC50: 0.336 µM
[3]; [8]
  IC50: 0.355 µM
[4]; [9]
  IC50: > 10 µM
[5]; [10]
  IC50: 1.2 µM

## CC(C)[C@H](NC(=O)COc1cccc2c(NS(=O)(=O)C(F)(F)F)cccc12)C(=O)N[C@H](C=O)CC(=O)O [Example 188, (3S)-3-[N-((5′-Trifluoromethylsulfonylamino-1′-Naphthyloxy)Acetyl)Valinyl]Amino-4-Oxobutanoic Acid]
[1]; [6]
  IC50: 11 µM
[2]; [7]
  IC50: 0.127 µM
[3]; [8]
  IC50: 0.207 µM
[4]; [9]
  IC50: 1.01 µM
[5]; [10]
  IC50: 0.615 µM

## CC(C)[C@H](NC(=O)COc1ccc2ccccc2c1C(=O)O)C(=O)N[C@H](C=O)CC(=O)O [Example 5, (3S)-3-[N-((1′-Carboxy-2′-Naphthyloxy)Acetyl)Valinyl]Amino-4-Oxobutanoic Acid]
[1]; [6]
  IC50: 10.9 µM
[2]; [7]
  IC50: 2.96 µM
[3]; [8]
  IC50: 0.401 µM
[4]; [9]
  IC50: 3.61 µM
[5]; [10]
  IC50: 0.733 µM

## O=C[C@H](CC(=O)O)NC(=O)[C@@H]1Cc2ccccc2N1C(=O)COc1cccc2ccccc12 [Example 186, (2′S,3S)-3-[N-((1-Naphthyloxy)Acetyl)Indoline-2′-Carbonyl]Amino-4-Oxobutanoic Acid]
[1]; [6]
  IC50: > 50 µM
[2]; [7]
  IC50: 0.298 µM
[3]; [8]
  IC50: 25.3 µM
[4]; [9]
  IC50: > 50 µM
[5]; [10]
  IC50: 39.8 µM

## CC(C)C[C@H](NC(=O)COc1cccc2c1CCCC2)C(=O)N[C@H](C=O)CC(=O)O [Example 51]
[1]; [11]
  IC50: 2.74 µM
[2]; [12]
  IC50: 1.81 µM
[3]; [13]
  IC50: 0.324 µM
[4]; [14]
  IC50: 11.8 µM
[5]; [15]
  IC50: 1.75 µM

## CC(C)C[C@H](NC(=O)COc1cccc2cccnc12)C(=O)N[C@H](C=O)CC(=O)O [Example 34]
[1]; [11]
  IC50: 1.51 µM
[2]; [12]
  IC50: 13.7 µM
[3]; [13]
  IC50: 0.147 µM
[4]; [14]
  IC50: 12.5 µM
[5]; [15]
  IC50: 2.24 µM

## CC(C)C[C@H](NC(=O)CSc1cccc2ccccc12)C(=O)N[C@H](C=O)CC(=O)O [Example 16]
[1]; [11]
  IC50: 1.74 µM
[2]; [12]
  IC50: 2.75 µM
[3]; [13]
  IC50: 0.195 µM
[4]; [14]
  IC50: 1.43 µM
[5]; [15]
  IC50: 7.42 µM

## CC(C)C[C@H](NC(=O)CCCc1ccc2ccccc2c1)C(=O)N[C@H](C=O)CC(=O)O [Example 18]
[1]; [11]
  IC50: 18.2 µM
[2]; [12]
  IC50: 1.8 µM
[3]; [13]
  IC50: 2.76 µM
[4]; [14]
  IC50: 14.5 µM
[5]; [15]
  IC50: > 50 µM

## CC(C)C[C@H](NC(=O)COc1ccccc1-c1ccccc1)C(=O)N[C@H](C=O)CC(=O)O [Example 39]
[1]; [11]
  IC50: 2.02 µM
[2]; [12]
  IC50: 0.636 µM
[3]; [13]
  IC50: 0.095 µM
[4]; [14]
  IC50: 0.717 µM
[5]; [15]
  IC50: 1.71 µM

## CC(C)C[C@H](NC(=O)CSc1ccc2ccccc2c1)C(=O)N[C@H](C=O)CC(=O)O [Example 17]
[1]; [11]
  IC50: 2.52 µM
[2]; [12]
  IC50: 0.792 µM
[3]; [13]
  IC50: 0.269 µM
[4]; [14]
  IC50: 3.16 µM
[5]; [15]
  IC50: 11 µM

## CC(C)C[C@H](NC(=O)COc1ccccc1Cc1ccccc1)C(=O)N[C@H](C=O)CC(=O)O [Example 42]
[1]; [11]
  IC50: 3.36 µM
[2]; [12]
  IC50: 0.521 µM
[3]; [13]
  IC50: 0.49 µM
[4]; [14]
  IC50: 10.1 µM
[5]; [15]
  IC50: 6.05 µM

## CC(C)C[C@H](NC(=O)CNc1cccc2ccccc12)C(=O)N[C@H](C=O)CC(=O)O [Example 8, (3S)-3-[N-((1-Naphthylamino)Acetyl)Leucinyl]Amino-4-Oxobutanoic Acid]
[1]; [6]
  IC50: 1.32 µM
[2]; [7]
  IC50: 0.033 µM
[3]; [8]
  IC50: 0.013 µM
[4]; [9]
  IC50: 0.037 µM
[5]; [10]
  IC50: 0.0076 µM

## CC(C)C[C@H](NC(=O)COc1ccc(Cl)c2ccccc12)C(=O)N[C@H](C=O)CC(=O)O [Example 28]
[1]; [11]
  IC50: 3.38 µM
[2]; [12]
  IC50: 0.429 µM
[3]; [13]
  IC50: 0.231 µM
[4]; [14]
  IC50: 12 µM
[5]; [15]
  IC50: 1.69 µM

## CC(C)C[C@H](NC(=O)COc1c(Cl)cc(Cl)c2ccccc12)C(=O)N[C@H](C=O)CC(=O)O [Example 29]
[1]; [11]
  IC50: 3.61 µM
[2]; [12]
  IC50: 0.141 µM
[3]; [13]
  IC50: 0.357 µM
[4]; [14]
  IC50: 21.4 µM
[5]; [15]
  IC50: 3.04 µM

## CC(C)C[C@H](NC(=O)COc1ccccc1)C(=O)N[C@H](C=O)CC(=O)O [Example 38]
[1]; [11]
  IC50: > 10 µM
[2]; [12]
  IC50: > 10 µM
[3]; [13]
  IC50: 3.4 µM
[4]; [14]
  IC50: > 50 µM
[5]; [15]
  IC50: > 10 µM

## O=C[C@H](CC(=O)O)NC(=O)[C@@H]1CSC(c2ccccc2)N1C(=O)COc1cccc2ccccc12 (stereo partly drawn) [Example 179, (3S,2′RS,4′R)-3-[3′-((1-Naphthyloxy)Acetyl)-2′-Phenylthiazolidine-4′-Carbonyl]Amino-4-Oxobutanoic Acid]
[1]; [6]
  IC50: > 50 µM
[2]; [7]
  IC50: 0.204 µM
[3]; [8]
  IC50: 14 µM
[4]; [9]
  IC50: 3.53 µM
[5]; [10]
  IC50: 1.55 µM

## CC(C)C[C@H](NC(=O)COc1ccnc2ccccc12)C(=O)N[C@H](C=O)CC(=O)O [Example 31]
[1]; [11]
  IC50: 4.57 µM
[2]; [12]
  IC50: 35.3 µM
[3]; [13]
  IC50: 0.232 µM
[4]; [14]
  IC50: > 50 µM
[5]; [15]
  IC50: > 50 µM

## CC(C)C[C@H](NC(=O)CCc1cccc2ccccc12)C(=O)N[C@H](C=O)CC(=O)O [Example 11]
[1]; [11]
  IC50: 8.78 µM
[2]; [12]
  IC50: 1.86 µM
[3]; [13]
  IC50: 1.59 µM
[4]; [14]
  IC50: 4.19 µM
[5]; [15]
  IC50: 12.2 µM

## CC(C)C[C@H](NC(=O)COc1cccc(-c2ccccc2)c1)C(=O)N[C@H](C=O)CC(=O)O [Example 40]
[1]; [11]
  IC50: 3.75 µM
[2]; [12]
  IC50: 1.1 µM
[3]; [13]
  IC50: 0.311 µM
[4]; [14]
  IC50: 14.5 µM
[5]; [15]
  IC50: 3.86 µM
